Results from PubChem BioAssay AID2060907 (Molecular Pharmacology Branch, DTP, NCI, 2025).

Tested on: 388556-164-R-J1-PDC complex spheroid viability
Assay: Anticancer human tumor 388556-164-R-J1-PDC patient-derived colon adenocarcinoma cell line growth inhibition [RAS]
Conditions: for IC50: curve of first compound; for viability, T/C: stronger effect = lower value; active = viability on the fitted dose curve at most 10% of control; inactive = the rest
In short: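 Agents were tested in combination matrices in half-log decrements from a top concentration at or near clinical Cmax (10 microM if undetermined). Targets were multi-cell spheroids of tumour lines plus HUVEC and MSC stromal cells.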
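Also: spheroids exposed to compound for 7 days before readout.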
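For viability, T/C in this document: 100% = DMSO vehicle control luminescence.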

CCc1c2c(nc3ccc(O)cc13)-c1cc3c(c(=O)n1C2)COC(=O)[C@]3(O)CC + C=CC(=O)N1CCN(c2nc(OCC3CCCN3C)nc3c(F)c(-c4nc(N)cc(C)c4C(F)(F)F)c(Cl)cc23)C(C)C1
0.119 µM: IC50 (second compound 0.01 µM)
0.0748 µM: IC50 (second compound 0.1 µM)
0.0963 µM: IC50 (second compound 1 µM)
0.0861 µM: IC50 (second compound 0.0316 µM)
inactive: viability, T/C (second compound 0.00316 µM, first compound 0.000949 µM) 103% | viability, T/C (second compound 0.00316 µM, first compound 0.003 µM) 97.2% | viability, T/C (second compound 0.00316 µM, first compound 0.00949 µM) 78% | viability, T/C (second compound 0.00316 µM, first compound 0.03 µM) 67.3% | viability, T/C (second compound 0.00316 µM, first compound 0.0949 µM) 53.7% | viability, T/C (second compound 0.00316 µM, first compound 0.3 µM) 29.9% | viability, T/C (second compound 0.01 µM, first compound 0.000949 µM) 110% | viability, T/C (second compound 0.01 µM, first compound 0.003 µM) 95.5% | viability, T/C (second compound 0.01 µM, first compound 0.00949 µM) 81.4% | viability, T/C (second compound 0.01 µM, first compound 0.03 µM) 72% | viability, T/C (second compound 0.01 µM, first compound 0.0949 µM) 58.3% | viability, T/C (second compound 0.01 µM, first compound 0.3 µM) 31.9% | viability, T/C (second compound 0.0316 µM, first compound 0.000949 µM) 99.9% | viability, T/C (second compound 0.0316 µM, first compound 0.003 µM) 98.8% | viability, T/C (second compound 0.0316 µM, first compound 0.00949 µM) 80.2% | viability, T/C (second compound 0.0316 µM, first compound 0.03 µM) 65.2% | viability, T/C (second compound 0.0316 µM, first compound 0.0949 µM) 51.4% | viability, T/C (second compound 0.0316 µM, first compound 0.3 µM) 23.3% | viability, T/C (second compound 0.1 µM, first compound 0.000949 µM) 102% | viability, T/C (second compound 0.1 µM, first compound 0.003 µM) 93.3% | viability, T/C (second compound 0.1 µM, first compound 0.00949 µM) 74.4% | viability, T/C (second compound 0.1 µM, first compound 0.03 µM) 61.3% | viability, T/C (second compound 0.1 µM, first compound 0.0949 µM) 51% | viability, T/C (second compound 0.1 µM, first compound 0.3 µM) 27.2% | viability, T/C (second compound 0.316 µM, first compound 0.000949 µM) 106% | viability, T/C (second compound 0.316 µM, first compound 0.003 µM) 92.7% | viability, T/C (second compound 0.316 µM, first compound 0.00949 µM) 82.4% | viability, T/C (second compound 0.316 µM, first compound 0.03 µM) 67% | viability, T/C (second compound 0.316 µM, first compound 0.0949 µM) 50.5% | viability, T/C (second compound 0.316 µM, first compound 0.3 µM) 32.7% | viability, T/C (second compound 1 µM, first compound 0.000949 µM) 107% | viability, T/C (second compound 1 µM, first compound 0.003 µM) 103% | viability, T/C (second compound 1 µM, first compound 0.00949 µM) 75.8% | viability, T/C (second compound 1 µM, first compound 0.03 µM) 68.1% | viability, T/C (second compound 1 µM, first compound 0.0949 µM) 55.2% | viability, T/C (second compound 1 µM, first compound 0.3 µM) 28.8%
0.0984 µM: IC50 (second compound 0.00316 µM)
0.0972 µM: IC50 (second compound 0.316 µM)

CC(C)NCC(C(=O)N1CCN(c2ncnc3c2C(C)CC3O)CC1)c1ccc(Cl)cc1 (stereo unspecified) + C#Cc1c(F)ccc2cc(O)cc(-c3ncc4c(N5CC6CCC(C5)N6)nc(OCC56CCCN5CC(F)C6)nc4c3F)c12
inactive: viability, T/C (second compound 0.0316 µM, first compound 0.0316 µM) 95.9% | viability, T/C (second compound 0.0316 µM, first compound 0.1 µM) 106% | viability, T/C (second compound 0.0316 µM, first compound 0.316 µM) 109% | viability, T/C (second compound 0.0316 µM, first compound 1 µM) 98.6% | viability, T/C (second compound 0.0316 µM, first compound 3.16 µM) 99.2% | viability, T/C (second compound 0.0316 µM, first compound 10 µM) 100% | viability, T/C (second compound 0.1 µM, first compound 0.0316 µM) 98.5% | viability, T/C (second compound 0.1 µM, first compound 0.1 µM) 107% | viability, T/C (second compound 0.1 µM, first compound 0.316 µM) 99.7% | viability, T/C (second compound 0.1 µM, first compound 1 µM) 96% | viability, T/C (second compound 0.1 µM, first compound 3.16 µM) 113% | viability, T/C (second compound 0.1 µM, first compound 10 µM) 93.6% | viability, T/C (second compound 0.316 µM, first compound 0.0316 µM) 99% | viability, T/C (second compound 0.316 µM, first compound 0.1 µM) 105% | viability, T/C (second compound 0.316 µM, first compound 0.316 µM) 88.5% | viability, T/C (second compound 0.316 µM, first compound 1 µM) 99.2% | viability, T/C (second compound 0.316 µM, first compound 3.16 µM) 107% | viability, T/C (second compound 0.316 µM, first compound 10 µM) 82.3% | viability, T/C (second compound 1 µM, first compound 0.0316 µM) 95.5% | viability, T/C (second compound 1 µM, first compound 0.1 µM) 93.1% | viability, T/C (second compound 1 µM, first compound 0.316 µM) 69.4% | viability, T/C (second compound 1 µM, first compound 1 µM) 92.1% | viability, T/C (second compound 1 µM, first compound 3.16 µM) 93.5% | viability, T/C (second compound 1 µM, first compound 10 µM) 77.8% | viability, T/C (second compound 3.16 µM, first compound 0.0316 µM) 80.6% | viability, T/C (second compound 3.16 µM, first compound 0.1 µM) 66.6% | viability, T/C (second compound 3.16 µM, first compound 0.316 µM) 75.9% | viability, T/C (second compound 3.16 µM, first compound 1 µM) 83.8% | viability, T/C (second compound 3.16 µM, first compound 3.16 µM) 88.4% | viability, T/C (second compound 3.16 µM, first compound 10 µM) 59.4% | viability, T/C (second compound 10 µM, first compound 0.0316 µM) 69.2% | viability, T/C (second compound 10 µM, first compound 0.1 µM) 67.3% | viability, T/C (second compound 10 µM, first compound 0.316 µM) 73.2% | viability, T/C (second compound 10 µM, first compound 1 µM) 87.2% | viability, T/C (second compound 10 µM, first compound 3.16 µM) 42% | viability, T/C (second compound 10 µM, first compound 10 µM) 53.3%
8.86 µM: IC50 (second compound 10 µM)
> 10 µM: IC50 (second compound 0.0316 µM) | IC50 (second compound 0.1 µM) | IC50 (second compound 0.316 µM) | IC50 (second compound 1 µM) | IC50 (second compound 3.16 µM)

NC1c2ccccc2OC12CCN(c1cnc3c(N4CCCc5ncccc54)n[nH]c3n1)CC2 (stereo unspecified) + CCn1c(-c2cc(N3CCN(C)CC3)cnc2C(C)OC)c2c3cc(ccc31)-c1csc(n1)CC(NC(=O)C1CC1C)C(=O)N1CCCC(N1)C(=O)OCC(C)(C)C2
< 0.0316 µM: IC50 (second compound 0.03 µM) | IC50 (second compound 0.0949 µM) | IC50 (second compound 0.3 µM)
0.106 µM: IC50 (second compound 0.000949 µM)
0.116 µM: IC50 (second compound 0.003 µM)
inactive: viability, T/C (second compound 0.000949 µM, first compound 0.0316 µM) 64.5% | viability, T/C (second compound 0.000949 µM, first compound 0.1 µM) 50.1% | viability, T/C (second compound 0.000949 µM, first compound 0.316 µM) 39% | viability, T/C (second compound 0.000949 µM, first compound 1 µM) 39.8% | viability, T/C (second compound 0.000949 µM, first compound 3.16 µM) 30.3% | viability, T/C (second compound 0.000949 µM, first compound 10 µM) 29.1% | viability, T/C (second compound 0.003 µM, first compound 0.0316 µM) 63% | viability, T/C (second compound 0.003 µM, first compound 0.1 µM) 52% | viability, T/C (second compound 0.003 µM, first compound 0.316 µM) 39.2% | viability, T/C (second compound 0.003 µM, first compound 1 µM) 30.3% | viability, T/C (second compound 0.003 µM, first compound 3.16 µM) 27.7% | viability, T/C (second compound 0.003 µM, first compound 10 µM) 22.6% | viability, T/C (second compound 0.00949 µM, first compound 0.0316 µM) 54.3% | viability, T/C (second compound 0.00949 µM, first compound 0.1 µM) 43.1% | viability, T/C (second compound 0.00949 µM, first compound 0.316 µM) 30.6% | viability, T/C (second compound 0.00949 µM, first compound 1 µM) 24.3% | viability, T/C (second compound 0.00949 µM, first compound 3.16 µM) 23.8% | viability, T/C (second compound 0.00949 µM, first compound 10 µM) 21.9% | viability, T/C (second compound 0.03 µM, first compound 0.0316 µM) 35.7% | viability, T/C (second compound 0.03 µM, first compound 0.1 µM) 29.9% | viability, T/C (second compound 0.03 µM, first compound 0.316 µM) 26.3% | viability, T/C (second compound 0.03 µM, first compound 1 µM) 22.5% | viability, T/C (second compound 0.03 µM, first compound 3.16 µM) 20.5% | viability, T/C (second compound 0.03 µM, first compound 10 µM) 18.6% | viability, T/C (second compound 0.0949 µM, first compound 0.0316 µM) 32.3% | viability, T/C (second compound 0.0949 µM, first compound 0.1 µM) 27.8% | viability, T/C (second compound 0.0949 µM, first compound 0.316 µM) 22.5% | viability, T/C (second compound 0.0949 µM, first compound 1 µM) 20.8% | viability, T/C (second compound 0.0949 µM, first compound 3.16 µM) 22.4% | viability, T/C (second compound 0.0949 µM, first compound 10 µM) 19.1% | viability, T/C (second compound 0.3 µM, first compound 0.0316 µM) 27.5% | viability, T/C (second compound 0.3 µM, first compound 0.1 µM) 23.8% | viability, T/C (second compound 0.3 µM, first compound 0.316 µM) 23.3% | viability, T/C (second compound 0.3 µM, first compound 1 µM) 21.3% | viability, T/C (second compound 0.3 µM, first compound 3.16 µM) 22.2% | viability, T/C (second compound 0.3 µM, first compound 10 µM) 21.9%
0.0476 µM: IC50 (second compound 0.00949 µM)
